Laboratory results from article doi:10.1101/2022.11.14.516475v2 (biorxiv, 2022).

Columns and labels:
D2 [1] = target: T1, D2 (Homo sapiens, UniProt P14416); type: binding; parameters: gene DRD2; full length; pcDNA3.1 mutants); DiscoverX beta-galactosidase fragment fusion for beta-arrestin assay; conditions: wild-type control
D2 [2] = target: T1, D2; type: cell-based; parameters: gene DRD2; full length; pcDNA3.1 mutants); DiscoverX beta-galactosidase fragment fusion for beta-arrestin assay; conditions: agonist
[3] = target: T2, SNAP-tagged human D2SR (SNAP-D2RS) (Homo sapiens, UniProt P14416); assay: TR-FRET association kinetics; type: binding; conditions: labelled compound; read-out: Kd (koff / kon)
T2 construct: gene DRD2

[4] = target: T3, 5-HT2A serotonin receptor (Homo sapiens, UniProt P28223); assay: DiscoverX gpcrMAX beta-arrestin recruitment, antagonist mode; type: cell-based; conditions: read-out: % inhibition at 10 μM
T3 construct: gene HTR2A; DiscoverX gpcrMAX PathHunter beta-arrestin cell line, enzyme-fragment tagged receptor

5-HT7 serotonin receptor = target: T4, 5-HT7 serotonin receptor (Homo sapiens, UniProt P34969); assay: PDSP radioligand binding competition; conditions: read-out: % inhibition at 10 μM
T4 construct: gene HTR7

[5] = target: T5, 5-HT2C serotonin receptor (Homo sapiens, UniProt P28335); assay: PDSP radioligand binding competition; conditions: read-out: % inhibition at 10 μM
T5 construct: gene HTR2C
T5 sequence (P28335 33-458): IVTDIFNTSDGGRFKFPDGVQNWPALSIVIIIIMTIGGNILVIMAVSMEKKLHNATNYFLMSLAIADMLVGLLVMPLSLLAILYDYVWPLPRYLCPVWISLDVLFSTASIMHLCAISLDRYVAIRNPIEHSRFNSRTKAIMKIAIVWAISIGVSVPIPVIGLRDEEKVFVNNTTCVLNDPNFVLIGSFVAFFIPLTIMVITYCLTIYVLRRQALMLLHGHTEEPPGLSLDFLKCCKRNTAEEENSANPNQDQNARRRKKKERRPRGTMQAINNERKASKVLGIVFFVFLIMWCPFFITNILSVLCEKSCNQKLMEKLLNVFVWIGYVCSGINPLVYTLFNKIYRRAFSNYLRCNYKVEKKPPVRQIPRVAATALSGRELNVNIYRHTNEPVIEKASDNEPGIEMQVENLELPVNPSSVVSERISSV

D3 = target: T6, D3 (Homo sapiens, UniProt P35462); assay: biochemical; parameters: PDSP radioligand binding competition, single concentration, % inhibition of specific binding; conditions: read-out: ML321 (10 µM) % Inhibition
T6 construct: gene DRD3
Experimental: ML321 was screened using the National Institute of Mental Health Psychoactive Drug Screening Program (PDSP) directed by Dr. Bryan L. Roth (University of North Carolina, Chapel Hill, NC). For experimental details including radioligands used and associated Kd values for each individual target, please refer to the PDSP website http://pdsp.med.unc.edu/. […] Assays were performed in triplicate. To further assess ML321 selectivity amongst a larger group of drug targets, we used the NIMH Psychoactive Drug Screening Program (PDSP), which utilizes radioligand binding competition assays for 46 unique GPCRs, transporters and ion channels. For screening, a single high concentration (10 µM) of ML321 was used to compete for radioligand binding to the PDSP targets (Figure 1C).

D2 [6] = target: T1, D2; assay: biochemical; parameters: gene DRD2; PDSP radioligand binding competition, single concentration, % inhibition of specific binding; conditions: read-out: ML321 (10 µM) % Inhibition
hERG K+ channel = target: T7, hERG K+ channel (Homo sapiens, UniProt Q12809); assay: automated whole-cell patch clamp, HEK293, tail current; type: cell-based; conditions: hek293 cells
T7 construct: gene KCNH2; expressed in HEK293 cells (Cyprotex), automated patch clamp

[7] = target: T2, SNAP-tagged human D2SR (SNAP-D2RS); assay: biochemical; type: CHO cell membranes; parameters: TR-FRET competition kinetic binding with PPHT-red, Motulsky-Mahan fit; conditions: read-out: koff (min^-1)

T1 sequence (P14416 whole entry, the tested form may be a part): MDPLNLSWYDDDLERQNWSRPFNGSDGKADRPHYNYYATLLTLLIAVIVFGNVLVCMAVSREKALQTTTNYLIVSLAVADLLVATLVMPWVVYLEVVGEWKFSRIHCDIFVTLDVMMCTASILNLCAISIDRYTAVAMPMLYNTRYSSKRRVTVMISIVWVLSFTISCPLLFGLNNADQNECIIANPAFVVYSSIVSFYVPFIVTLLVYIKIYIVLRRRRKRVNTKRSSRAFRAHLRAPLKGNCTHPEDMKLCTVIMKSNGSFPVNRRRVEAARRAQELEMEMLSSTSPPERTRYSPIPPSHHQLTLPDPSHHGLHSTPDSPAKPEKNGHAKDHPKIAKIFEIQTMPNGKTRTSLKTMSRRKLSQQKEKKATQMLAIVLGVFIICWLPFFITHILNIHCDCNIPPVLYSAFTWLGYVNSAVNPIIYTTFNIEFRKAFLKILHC
T2 sequence (P14416 1-414 isoform P14416-2): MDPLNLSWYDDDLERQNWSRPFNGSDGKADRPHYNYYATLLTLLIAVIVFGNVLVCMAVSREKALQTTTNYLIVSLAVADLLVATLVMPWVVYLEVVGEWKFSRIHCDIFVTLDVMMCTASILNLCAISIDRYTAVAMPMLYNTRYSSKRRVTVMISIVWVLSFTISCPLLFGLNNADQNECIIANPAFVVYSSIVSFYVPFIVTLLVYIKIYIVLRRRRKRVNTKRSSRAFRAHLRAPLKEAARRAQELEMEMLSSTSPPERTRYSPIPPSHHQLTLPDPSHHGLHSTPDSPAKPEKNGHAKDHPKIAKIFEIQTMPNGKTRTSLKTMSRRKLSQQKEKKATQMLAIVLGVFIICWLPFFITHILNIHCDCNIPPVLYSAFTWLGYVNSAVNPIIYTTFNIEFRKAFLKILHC
T3 sequence (P28223 whole entry, the tested form may be a part): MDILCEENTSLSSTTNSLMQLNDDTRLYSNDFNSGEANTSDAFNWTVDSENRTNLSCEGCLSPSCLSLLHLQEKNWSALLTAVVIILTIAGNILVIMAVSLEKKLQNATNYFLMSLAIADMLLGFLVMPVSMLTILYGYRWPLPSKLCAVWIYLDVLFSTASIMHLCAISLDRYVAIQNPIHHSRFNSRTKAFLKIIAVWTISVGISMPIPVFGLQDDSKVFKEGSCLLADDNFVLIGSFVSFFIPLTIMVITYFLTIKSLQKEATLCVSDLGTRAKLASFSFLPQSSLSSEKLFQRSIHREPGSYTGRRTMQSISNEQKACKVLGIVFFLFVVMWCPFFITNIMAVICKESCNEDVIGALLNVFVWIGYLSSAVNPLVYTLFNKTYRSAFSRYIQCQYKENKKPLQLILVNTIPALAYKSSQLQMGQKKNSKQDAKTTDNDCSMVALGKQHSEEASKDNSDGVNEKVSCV
T4 sequence (P34969 whole entry): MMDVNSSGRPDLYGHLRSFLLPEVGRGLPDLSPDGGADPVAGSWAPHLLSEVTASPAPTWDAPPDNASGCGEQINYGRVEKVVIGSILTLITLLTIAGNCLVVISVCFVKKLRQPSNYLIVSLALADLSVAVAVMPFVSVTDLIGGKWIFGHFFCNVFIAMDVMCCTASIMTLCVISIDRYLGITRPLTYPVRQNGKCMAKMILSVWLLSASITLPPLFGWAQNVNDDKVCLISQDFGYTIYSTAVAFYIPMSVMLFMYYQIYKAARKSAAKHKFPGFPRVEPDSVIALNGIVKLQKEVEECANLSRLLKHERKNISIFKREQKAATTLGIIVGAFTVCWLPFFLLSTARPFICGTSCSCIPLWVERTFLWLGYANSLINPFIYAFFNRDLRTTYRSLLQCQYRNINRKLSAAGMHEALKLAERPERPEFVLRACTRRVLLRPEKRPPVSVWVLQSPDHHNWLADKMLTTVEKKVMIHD
T6 sequence (P35462 whole entry): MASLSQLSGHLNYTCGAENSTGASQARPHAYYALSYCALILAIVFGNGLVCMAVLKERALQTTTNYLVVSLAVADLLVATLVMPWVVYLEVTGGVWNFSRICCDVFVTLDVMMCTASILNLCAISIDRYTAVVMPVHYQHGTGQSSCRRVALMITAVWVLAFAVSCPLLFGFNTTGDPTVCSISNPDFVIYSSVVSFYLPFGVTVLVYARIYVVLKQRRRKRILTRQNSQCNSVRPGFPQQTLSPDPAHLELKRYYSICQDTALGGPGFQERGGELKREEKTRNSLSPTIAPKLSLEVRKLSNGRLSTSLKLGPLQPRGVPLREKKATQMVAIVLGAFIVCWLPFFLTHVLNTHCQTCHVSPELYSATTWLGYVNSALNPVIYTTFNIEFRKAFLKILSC
T7 sequence (Q12809 whole entry): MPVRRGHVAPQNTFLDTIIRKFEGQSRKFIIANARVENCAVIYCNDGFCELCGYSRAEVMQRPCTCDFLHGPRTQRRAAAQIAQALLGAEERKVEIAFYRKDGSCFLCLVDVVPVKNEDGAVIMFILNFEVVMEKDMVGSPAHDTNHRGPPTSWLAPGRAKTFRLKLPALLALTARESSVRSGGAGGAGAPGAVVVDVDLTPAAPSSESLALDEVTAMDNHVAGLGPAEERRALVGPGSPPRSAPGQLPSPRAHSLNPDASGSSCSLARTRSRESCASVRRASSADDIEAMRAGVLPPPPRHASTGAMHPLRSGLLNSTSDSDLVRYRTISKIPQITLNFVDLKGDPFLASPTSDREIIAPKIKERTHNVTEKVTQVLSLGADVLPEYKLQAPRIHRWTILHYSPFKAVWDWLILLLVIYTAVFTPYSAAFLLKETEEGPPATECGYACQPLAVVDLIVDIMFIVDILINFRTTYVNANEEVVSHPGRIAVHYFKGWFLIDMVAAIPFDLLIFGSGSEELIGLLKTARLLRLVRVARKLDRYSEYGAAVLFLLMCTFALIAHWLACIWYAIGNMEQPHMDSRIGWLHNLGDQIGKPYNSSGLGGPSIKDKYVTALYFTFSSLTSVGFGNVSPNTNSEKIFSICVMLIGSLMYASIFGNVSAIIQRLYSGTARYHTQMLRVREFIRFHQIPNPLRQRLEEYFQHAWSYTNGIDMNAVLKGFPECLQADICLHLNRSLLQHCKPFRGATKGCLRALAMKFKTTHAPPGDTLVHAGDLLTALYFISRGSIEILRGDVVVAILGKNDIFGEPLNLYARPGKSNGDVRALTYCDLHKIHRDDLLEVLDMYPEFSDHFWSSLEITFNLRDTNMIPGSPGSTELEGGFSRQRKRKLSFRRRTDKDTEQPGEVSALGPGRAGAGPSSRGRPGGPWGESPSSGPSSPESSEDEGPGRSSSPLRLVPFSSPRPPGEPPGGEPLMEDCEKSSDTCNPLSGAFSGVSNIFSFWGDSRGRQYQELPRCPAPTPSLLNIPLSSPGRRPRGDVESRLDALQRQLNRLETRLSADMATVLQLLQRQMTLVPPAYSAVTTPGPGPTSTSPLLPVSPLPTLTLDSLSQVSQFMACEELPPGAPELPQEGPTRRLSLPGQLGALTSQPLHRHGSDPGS

With `O=C(CCCN1CCC2(CC1)C(=O)NCN2c1ccccc1)c1ccc(F)cc1` [spiperone] the Ki (D2 [1]) was “performed using both ML321 and unlabeled spiperone (as a control) with the wild-type”.
`NCCc1ccc(O)c(O)c1` [dopamine] was tested, and the EC50 (D2 [2]) was “EC50 and IC50 values for dopamine and ML321, respectively, were determined”.
Compound PPHT-red has a Kd [3] of 0.0115 ± 0.00016 µM.
Compound `CN1C(=O)c2ccccc2[S@+]([O-])c2ccc(C(=O)NCCc3cccs3)cc21` [ML321] has an inhibition at 10 µM [4] of 48%, an inhibition at 10 µM (5-HT7 serotonin receptor) of 53% and an inhibition at 10 µM [5] of 64%. The inhibition at 10 µM (D3) was 59%, the inhibition at 10 µM (D2 [6]) was 92% and the IC50 (hERG K+ channel) was greater than 25 µM. It also gave a koff [7] of 1.3 min⁻¹.
